Experimental data: PubChem BioAssay (NCI)
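Five concentrations, 48 hours, 96-well plates. TGI: concentration producing complete growth inhibition.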

Assays:
Assay in all cases: growth of human tumour cells (NCI), 48 h
IGROV1 ovarian = test system: IGROV1 ovarian
UO-31 renal = test system: UO-31 renal
M14 melanoma = test system: M14 melanoma
MOLT-4 leukemia = test system: MOLT-4 leukemia
KM12 colon = test system: KM12 colon
KM20L2 colon = test system: KM20L2 colon
HCT-15 colon = test system: HCT-15 colon
ACHN renal = test system: ACHN renal
786-0 renal = test system: 786-0 renal
UACC-62 melanoma = test system: UACC-62 melanoma
OVCAR-5 ovarian = test system: OVCAR-5 ovarian
SK-MEL-28 melanoma = test system: SK-MEL-28 melanoma
MALME-3M melanoma = test system: MALME-3M melanoma
OVCAR-4 ovarian = test system: OVCAR-4 ovarian
SF-268 CNS = test system: SF-268 CNS
DMS 114 small cell lung = test system: DMS 114 small cell lung
K-562 leukemia = test system: K-562 leukemia
SNB-19 CNS = test system: SNB-19 CNS
HL-60(TB) leukemia = test system: HL-60(TB) leukemia
SK-OV-3 ovarian = test system: SK-OV-3 ovarian
SNB-75 CNS = test system: SNB-75 CNS
HCT-116 colon = test system: HCT-116 colon
SNB-78 CNS = test system: SNB-78 CNS
SK-MEL-5 melanoma = test system: SK-MEL-5 melanoma
NCI-H226 lung = test system: NCI-H226 lung
SW-620 colon = test system: SW-620 colon
HOP-92 NSCLC = test system: HOP-92 NSCLC
SK-MEL-2 melanoma = test system: SK-MEL-2 melanoma
TK-10 renal = test system: TK-10 renal
NCI-H23 lung = test system: NCI-H23 lung
RXF 393 renal = test system: RXF 393 renal
U251 CNS = test system: U251 CNS
A549 NSCLC = test system: A549 NSCLC
OVCAR-3 ovarian = test system: OVCAR-3 ovarian
HCC-2998 colon = test system: HCC-2998 colon
SN12C renal = test system: SN12C renal
SR leukemia = test system: SR leukemia
LOX IMVI melanoma = test system: LOX IMVI melanoma
CAKI-1 renal = test system: CAKI-1 renal
CCRF-CEM leukemia = test system: CCRF-CEM leukemia
SF-295 CNS = test system: SF-295 CNS
COLO 205 colon = test system: COLO 205 colon
M19-MEL melanoma = test system: M19-MEL melanoma
RPMI-8226 leukemia = test system: RPMI-8226 leukemia
HOP-62 NSCLC = test system: HOP-62 NSCLC
SF-539 CNS = test system: SF-539 CNS
EKVX NSCLC = test system: EKVX NSCLC
OVCAR-8 ovarian = test system: OVCAR-8 ovarian
A498 renal = test system: A498 renal
NCI-H460 lung = test system: NCI-H460 lung
UACC-257 melanoma = test system: UACC-257 melanoma
HT29 colon = test system: HT29 colon
DMS 273 small cell lung = test system: DMS 273 small cell lung
NCI-H522 lung = test system: NCI-H522 lung

COC1CCCCN1C(=O)c1ccccc1 (stereo unspecified)
TGI (IGROV1 ovarian): > 25.3 µM | TGI (UO-31 renal): > 25.3 µM | TGI (M14 melanoma): > 25.3 µM | TGI (MOLT-4 leukemia): > 25.3 µM | TGI (KM12 colon): > 25.3 µM | TGI (KM20L2 colon): > 25.3 µM | TGI (HCT-15 colon): > 25.3 µM | TGI (ACHN renal): > 25.3 µM | TGI (786-0 renal): > 25.3 µM | TGI (UACC-62 melanoma): > 25.3 µM | TGI (OVCAR-5 ovarian): > 25.3 µM | TGI (SK-MEL-28 melanoma): > 25.3 µM | TGI (MALME-3M melanoma): > 25.3 µM | TGI (OVCAR-4 ovarian): > 25.3 µM | TGI (SF-268 CNS): > 25.3 µM | TGI (DMS 114 small cell lung): > 25.3 µM | TGI (K-562 leukemia): > 25.3 µM | TGI (SNB-19 CNS): > 25.3 µM | TGI (HL-60(TB) leukemia): > 25.3 µM | TGI (SK-OV-3 ovarian): > 25.3 µM | TGI (SNB-75 CNS): > 25.3 µM | TGI (HCT-116 colon): > 25.3 µM | TGI (SNB-78 CNS): > 25.3 µM | TGI (SK-MEL-5 melanoma): > 25.3 µM | TGI (NCI-H226 lung): > 25.3 µM | TGI (SW-620 colon): > 25.3 µM | TGI (HOP-92 NSCLC): > 25.3 µM | TGI (SK-MEL-2 melanoma): > 25.3 µM | TGI (TK-10 renal): > 25.3 µM | TGI (NCI-H23 lung): > 25.3 µM | TGI (RXF 393 renal): > 25.3 µM | TGI (U251 CNS): > 25.3 µM | TGI (A549 NSCLC): > 25.3 µM | TGI (OVCAR-3 ovarian): > 25.3 µM | TGI (HCC-2998 colon): > 25.3 µM | TGI (SN12C renal): > 25.3 µM | TGI (SR leukemia): > 25.3 µM | TGI (LOX IMVI melanoma): > 25.3 µM | TGI (CAKI-1 renal): > 25.3 µM

COC(=O)c1s/c(=N\C(=S)N(C)C)n(-c2ccc(Cl)cc2)c1C(=O)OC
TGI (CCRF-CEM leukemia): > 100 µM | TGI (SF-295 CNS): > 100 µM | TGI (COLO 205 colon): > 100 µM | TGI (M19-MEL melanoma): > 100 µM | TGI (IGROV1 ovarian): > 10 µM | TGI (RPMI-8226 leukemia): > 100 µM | TGI (UO-31 renal): > 100 µM | TGI (M14 melanoma): > 100 µM | TGI (MOLT-4 leukemia): > 100 µM | TGI (KM12 colon): > 100 µM | TGI (HOP-62 NSCLC): > 100 µM | TGI (KM20L2 colon): > 100 µM | TGI (HCT-15 colon): > 100 µM | TGI (ACHN renal): > 100 µM | TGI (786-0 renal): > 100 µM | TGI (UACC-62 melanoma): > 10 µM | TGI (OVCAR-5 ovarian): > 100 µM | TGI (SK-MEL-28 melanoma): > 100 µM | TGI (MALME-3M melanoma): > 100 µM | TGI (SF-539 CNS): > 100 µM | TGI (OVCAR-4 ovarian): > 100 µM | TGI (SF-268 CNS): > 100 µM | TGI (K-562 leukemia): > 100 µM | TGI (SNB-19 CNS): > 100 µM | TGI (HL-60(TB) leukemia): > 100 µM | TGI (SK-OV-3 ovarian): > 10 µM | TGI (SNB-75 CNS): > 10 µM | TGI (EKVX NSCLC): > 100 µM | TGI (HCT-116 colon): > 100 µM | TGI (OVCAR-8 ovarian): > 100 µM | TGI (A498 renal): > 100 µM | TGI (SNB-78 CNS): > 100 µM | TGI (NCI-H460 lung): > 100 µM | TGI (SK-MEL-5 melanoma): > 10 µM | TGI (NCI-H226 lung): > 100 µM | TGI (UACC-257 melanoma): > 100 µM | TGI (SW-620 colon): > 100 µM | TGI (HT29 colon): > 100 µM | TGI (DMS 273 small cell lung): > 100 µM | TGI (NCI-H522 lung): > 100 µM | TGI (SK-MEL-2 melanoma): > 100 µM | TGI (TK-10 renal): > 100 µM | TGI (NCI-H23 lung): > 100 µM | TGI (RXF 393 renal): > 100 µM | TGI (U251 CNS): > 100 µM | TGI (A549 NSCLC): > 100 µM | TGI (OVCAR-3 ovarian): > 100 µM | TGI (HCC-2998 colon): > 100 µM | TGI (SN12C renal): > 100 µM | TGI (SR leukemia): > 100 µM | TGI (LOX IMVI melanoma): > 100 µM | TGI (CAKI-1 renal): > 100 µM
